Tested on: THP-1 macrophages
Assay: Cholesterol efflux from differentiated THP-1 macrophages
Assay type: cell-based
Details: ApoA1, 10 uM, 24 h
Description: Methods: Cultures of the monocyte-macrophage cell line and the hepatocytes HepG2 are obtained from the American Type tissue Culture Collection, Rockville, Md. and were grown in RPMI 1640 medium supplemented with 10% fetal bovine serum, 10 mM HEPES, 2 mM pyruvate, 50 uM (3-Mercaptoethanol (THP-1) and Minimum essential medium (Eagle) with 2 mM L-glutamine and Earle's BSS supplemented with 10% fetal bovine serum, 2 mM glutamin, 0.1 mM non-essential amino acids, 1 mM sodium pyruvate (HepG2), respectively, at 37° C. in 5% CO2. THP-1 cells are differentiated into macrophages by addition of 100 nM Phorbol 12-Myristate 13-Acetate (PMA; Sigma P8139) and PMA included in the medium of all subsequent experiments to maintain differentiation. For cholesterol efflux measurements and triglyceride analysis cells are seeded in 6 well plates at 1.8×10^6 cells (THP-1) and 1×10^6 cells (HepG2) per well, respectively. CHOLESTEROL EFFLUX THP-1 cells are seeded in 6 well plates at 1×10^6 cells per well in RPMI 1640 medium containing 10% FCS and 100 nM TPA for 72 h. After washing with PBS cells are incubated 24 h with fresh in RPMI 1640 medium containing 10% FCS and 100 nM TPA. […] Medium is collected, centrifuged to remove cell debris and assayed for cholesterol using a commercial fluorometric kit (Molecular Probes A-12216). The remaining cellular proteins are lysed with 0.3 NNaOH and protein content measured with the Biorad Bradford reagent. THP-1 (1×10^6 cells per dish) cells were seeded in 6 well dishes in 3 ml modified RPMI 1640 medium (ATTC, Cat. […] After incubation for 24 hours, total cholesterol was determined from cell supernatant in each of the wells using an enzymatic assay with fluorescence read-out for the determination of cholesterol (Amplex Red Cholesterol Assay Kit (A-12213). The fluorescence readout per mg of total protein content as determined from cells that were present in the respective well are shown in FIGS. 9 or 11 as an example.

| Structure (SMILES) | cholesterol export |
| --- | --- |
| C=CCn1c(N2C3CC(C)(C)CC2(C)C3)nc2ccc(I)cc2c1=O (stereo not shown) [formula (9)] | marked increase |
| CCCn1c(N2[C@@H]3CC(C)(C)C[C@@]2(C)C3)nc2cccc(F)c2c1=O [formula (11)] | marked increase |
| C=CCn1c(N2[C@@H]3CC(C)(C)C[C@@]2(C)C3)nc2cccc(F)c2c1=O [formula (12)] | marked increase |
| CC(C)n1c(N2C3CC(C)(C)CC2(C)C3)nc2ccc(I)cc2c1=O (stereo not shown) [formula (10)] | marked increase |

Reference: US20050261319A1, “Novel 2-amino-4-quinazolinones and 2-amino-4-oxoquinazolones as LXR nuclear receptor binding compounds with partial agonistic properties” (priority 2002, published 2005)
